Measurements reported in paper PMC4793208 (RNA, 2016).

Key:
S. pombe Dcp1/2 = target: T1, S. pombe Dcp1/2 (Schizosaccharomyces pombe, UniProt O13828); assay type: biochemical
T1 sequence (O13828 1-243 limits assumed): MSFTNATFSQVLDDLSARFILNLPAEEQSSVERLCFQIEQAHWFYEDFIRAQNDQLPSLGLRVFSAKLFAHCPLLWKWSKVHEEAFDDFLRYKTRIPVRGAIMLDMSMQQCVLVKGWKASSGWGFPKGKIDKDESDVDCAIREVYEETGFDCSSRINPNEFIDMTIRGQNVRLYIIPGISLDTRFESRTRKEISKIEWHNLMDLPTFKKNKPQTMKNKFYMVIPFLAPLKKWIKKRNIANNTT
T1 sequence (Q9P805 1-127 partner): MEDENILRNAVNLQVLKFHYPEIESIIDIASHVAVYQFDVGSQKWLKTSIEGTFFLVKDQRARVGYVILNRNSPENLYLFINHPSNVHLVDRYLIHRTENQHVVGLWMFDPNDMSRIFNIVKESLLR

SpDcp1/2 = target: T2, SpDcp1/2 (Schizosaccharomyces pombe, UniProt O13828); test: Single-turnover kinetic inhibition assay, SpDcp1/2, 29-nt native-capped RNA; assay type: biochemical; settings: read-out: KI (affinity for the free enzyme), Dcp1/2 complex, subsaturating enzyme
T2 sequence (O13828 1-243): T1 sequence (O13828 1-243 limits assumed)
T2 sequence (Q9P805 1-127 partner): T1 sequence (Q9P805 1-127 partner)

Row | SMILES | inhibitory properties towards Dcp1/2 decapping (in words) (S. pombe Dcp1/2) | Ki (SpDcp1/2)
1 | C[n+]1cn([C@@H]2O[C@H](COP(=O)(O)OP(=O)([O-])OP(=O)(O)OP(=O)(O)OC[C@H]3O[C@@H](n4cnc5c(=O)[nH]c(N)nc54)[C@H](O)[C@@H]3O)[C@@H](O)[C@H]2O)c2nc(N)nc(O)c21 [Compound 17, m^7GppppG] | minimal | 
2 | Cn1c[n+]([C@@H]2O[C@H](COP(=O)(O)OP(=O)([O-])OP(=O)(O)OC[C@H]3O[C@@H](n4cnc5c(=O)[nH]c(N)nc54)[C@H](O)[C@@H]3O)[C@@H](O)[C@H]2O)c2nc(N)[nH]c(=O)c21 [m^7GpppG] |  | 1400 ± 300 µM
3 | Nc1ncnc2c1ncn2[C@@H]1O[C@H](COP(=O)(O)OP(=O)(O)OP(=O)(O)O)[C@@H](O)[C@H]1O [Compound 18, ATP] | poor Dcp1/2 inhibitors | 
4 | Nc1nc2c(ncn2[C@@H]2O[C@H](COP(=O)(O)OP(=O)(O)OP(=O)(O)O)[C@@H](O)[C@H]2O)c(=O)[nH]1 [Compound 19, GTP] | poor Dcp1/2 inhibitors | 
5 | CO[C@H]1[C@@H](O)[C@H]([n+]2cn(C)c3c(=O)[nH]c(N)nc32)O[C@@H]1COP(=O)([O-])OP(=O)(O)OP(=O)(O)OC[C@H]1O[C@@H](n2cnc3c(=O)[nH]c(N)nc32)[C@H](O)[C@@H]1O [Compound 16, m2^7,3′-OGpppG] | poor Dcp1/2 inhibitors | 
